From publication PMC4412285, “Broadening the repertoire of melanoma-associated T-cell epitopes” (Cancer Immunology, Immunotherapy : CII, 2015)

Columns and labels:
[1] = tested on: melanoma cell lines FM3 (HLA-A3+gp100+) and FM28 (HLA-A3-gp100+); assay: 51Chromium-release cytotoxicity assay, melanoma cell lines; assay type: cell-based, human; details: 51Cr release, 4 h
Protocol: To measure the ^51Chromium-release, 5 × 10^5 target cells in 100 µl R10 were labeled with ^51Cr (100 µCi; Amersham, Arlington Heights, IL) and pulsed with peptide at 37 °C for 1 h when indicated. The washed target cells were incubated with effector cells at various effector/target ratios in 96-well plates at 37 °C for 4 h before 100 µl of medium was aspirated and the ^51Cr release counted in a gamma counter (Wallac Wizard 1470 Automatic Gamma Counter, Perkin Elmer). The maximum ^51Cr release was determined in separate wells by adding 100 µl of 10 % Triton X-100, and the spontaneous release was determined by adding 100 µl of R10 to target cells only. […] The target cells were melanoma cell lines FM3 (HLA-A3^+gp100^+) and FM28 (HLA-A3^−gp100^+).

HLA-A11 = target: T1, HLA-A11 (Homo sapiens, UniProt P04439, A114D/F33Y/S129P); assay: MHC ELISA after UV light-mediated peptide exchange; assay type: binding; set-up: key: 1 = confirm ed ligand; details: MHC rescue after UV-induced peptide exchange, absorbance normalized to control ligand HLA-A11/EBV EBNA4AVF, selected if above 0.90 of control in either of two experiments, duplicates
T1 construct: made in house; host or cells: Escherichia coli

## LIYRRRLMK
[1]; not affected by T2-A3 cells pulsed with an irrelevant peptide (Fig. 3e)
  Cold target inhibition of FM3 killing by T2-A3 cells pulsed with the peptide: specifically inhibited
[1]; HLA-A3-restricted specific T cells, 37 °C (Fig. 3d)
  T cell-mediated killing of melanoma cell lines FM3 and FM28: selective killing of the HLA-A3-positive melanoma cell line FM3
HLA-A11
  Confirmed ligand: 1
